Experimental data from patent EP1140904B1, “FARNESYL PROTEIN TRANSFERASE INHIBITORS” (SCHERING CORPORATION, priority 1998, dated 2000).
Where two headings read alike, the source gives them in different places.

How the values were obtained:
Human tumor cells = assay: Soft Agar Assay (anchorage-independent growth, colony count after MTT staining); format: cell-based
Protocol: Anchorage-independent growth is a characteristic of tumorigenic cell lines. Human tumor cells can be suspended in growth medium containing 0.3% agarose and an indicated concentration of a farnesyl transferase inhibitor. The solution can be overlayed onto growth medium solidified with 0.6% agarose containing the same concentration of farnesyl transferase inhibitor as the top layer. After the top layer is solidified, plates can be incubated for 10-16 days at 37°C under 5% CO2 to allow colony outgrowth. After incubation, the colonies can be stained by overlaying the agar with a solution of MTT (3-[4,5-dimethyl-thiazol-2-yl]-2,5-diphenyltetrazolium bromide, Thiazolyl blue) (1 mg/mL in PBS). Colonies can be counted and the IC50's can be determined.

[1] = molecular target: farnesyl protein transferase (Homo sapiens, UniProt P49354+P49356); assay: FPT IC50 (inhibition of farnesyl protein transferase, in vitro enzyme assay); format: biochemical; conditions: procedures of WO 95/10516
Protocol: FPT IC50 (inhibition of farnesyl protein transferase, in vitro enzyme assay) was determined following the assay procedures described in WO 95/10516, published April 20, 1995. GGPT IC50 (inhibition of geranylgeranyl protein transferase, in vitro enzyme assay), Cell Mat Assay, COS Cell IC50 (Cell-Based Assay), and anti-tumor activity (in vivo anti-tumor studies) could be determined by the assay procedures described in WO 95/10516. The disclosure of WO 95/10516 is incorporated herein by reference thereto.

[2] = colony outgrowth 10-16 days at 37°C under 5% CO2, read-out: Soft Agar IC50

Molecule `CC(C)OC(=O)N1CCN(C2c3ccc(Cl)cc3CCc3cc(Br)cnc32)CC1C(=O)N1CCCC(Cn2ccnc2)C1` (stereo not drawn) [Example 14] has an IC50 (Human tumor cells; [2]) of 0.5 to 30 nM.
`Cc1cn(CC2CCCN(C(=O)C3CN(C4c5ccc(Cl)cc5CCc5cc(Br)cnc54)CCN3C(=O)Cc3ccc(F)cc3)C2)cn1` (stereo not drawn) [Example 197] showed an IC50 [1] of 0.04 to 2.7 nM and an IC50 (Human tumor cells; [2]) of 0.05 to 30 nM.
`Cc1cn(C[C@@H]2CCCN(C(=O)[C@H]3CN(C4c5ccccc5CCc5ccccc54)CCN3C(=O)OC3CCCCC3)C2)cn1` [Example 414] showed an IC50 [1] of 0.04 to 2.7 nM and an IC50 (Human tumor cells; [2]) of 0.05 to 30 nM.
`CC(C)(C)NC(=O)N1CCN([C@@H]2c3ccc(Cl)cc3CCc3cc(Br)cnc32)C[C@@H]1C(=O)N1CCC[C@H](Cn2ccnc2)C1` [Example 18] was tested, and the IC50 (Human tumor cells; [2]) was 0.5 to 30 nM.
Molecule `CC(C)(C)OC(=O)N1CCN(C2c3ccc(Cl)cc3CCc3cc(Br)cnc32)CC1C(=O)N1CCCC(Cn2ccnc2)C1` (stereo not drawn) [Example 10] has an IC50 (Human tumor cells; [2]) of 0.5 to 30 nM.
`CC(C)OC(=O)N1CCN([C@@H]2c3ccc(Cl)cc3CCc3cc(Br)cnc32)C[C@@H]1C(=O)N1CCC[C@H](Cn2ccnc2)C1` [Example 19] showed an IC50 (Human tumor cells; [2]) of 0.5 to 30 nM.
For `CC(C)(C)NC(=O)N1CCN(C2c3ccc(Cl)cc3CCc3cc(Br)cnc32)CC1C(=O)N1CCCC(Cn2ccnc2)C1` (stereo not drawn) [Example 16], the IC50 (Human tumor cells; [2]) was 0.5 to 30 nM.
`O=C(C1CN(C2c3ccc(Cl)cc3CCc3cc(Br)cnc32)CCN1C(=O)OC1CCCCC1)N1CCCC(Cn2ccnc2)C1` (stereo not drawn) [Example 15] showed an IC50 (Human tumor cells; [2]) of 0.5 to 30 nM.
`CC(C)(C)OC(=O)N1CCN(C2c3ccc(Cl)cc3CCc3cc(Br)cnc32)C[C@@H]1C(=O)N1CCCCC1CCCn1ccnc1` (stereo partly drawn) [Example 145, 1,1-DIMETHYLETHYL 4-(3-BROMO-8-CHLORO-6,11-DIHYDRO-5H-BENZO[5,6]CYCLOHEPTA[1,2-b]PYRIDIN-11-YL)-2(R)-[[2-[3-(1H-IMIDAZOL-1-YL)PROPYL]-1-PIPERIDINYL]CARBONYL]-1-PIPERAZINECARBOXYLATE] showed an IC50 [1] of 0.04 to 2.7 nM and an IC50 (Human tumor cells; read-out: Soft Agar IC50) of 0.5 to 30 nM.
Molecule `Cc1cn(CC2CCCN(C(=O)C3CN(C4c5ccc(Cl)cc5CCc5cccnc54)CCN3C(=O)OCC(C)(C)C)C2)cn1` (stereo not drawn) [Example 411] has an IC50 [1] of 0.04 to 2.7 nM and an IC50 (Human tumor cells; [2]) of 0.05 to 30 nM.
In the case of `CC(C)(C)OC(=O)N1CCN([C@H]2c3ccc(Cl)cc3CCc3cc(Br)cnc32)C[C@@H]1C(=O)N1CCCCC1CCn1ccnc1` (stereo partly drawn) [Example 138, 1,1-DIMETHYLETHYL 4-(3-BROMO-8-CHLORO-6,11-DIHYDRO-5H-BENZO[5,6]CYCLOHEPTA[1,2-b]PYRIDIN-11(S)-YL)-2(R)-[[2-[2-(1H-IMIDAZOL-1-YL)ETHYL]-1-PIPERIDINYL]CARBONYL]-1-PIPERAZINECARBOXYLATE], the IC50 [1] is reported as 0.04 to 2.7 nM and the IC50 (Human tumor cells; read-out: Soft Agar IC50) is reported as 0.5 to 30 nM.
For `CC(C)(C)OC(=O)N1CCN(C2c3ccc(Cl)cc3CCc3cc(Br)cnc32)C[C@@H]1C(=O)N1CCCCC1CCn1ccnc1` (stereo partly drawn) [Example 74, 1,1-DIMETHYLETHYL-4-(3-BROMO-8-CHLORO-6,11-DIHYDRO-5H-BENZO[5,6]CYCLOHEPTA[1,2-b]PYRIDIN-11-YL)-2(R)-[[2-[2-(1H-IMIDAZOL-1-YL)ETHYL]-1-PIPERIDINYL]CARBONYL]-1-PIPERAZINECARBOXYLATE], the IC50 [1] was 0.04 to 2.7 nM and the IC50 (Human tumor cells; read-out: Soft Agar IC50) was 0.5 to 30 nM.
`Cc1cn(CC2CCCN(C(=O)C3CN(C4c5ccc(Cl)cc5CCc5ccc[n+]([O-])c54)CCN3C(=O)OC3CCCCC3)C2)cn1` (stereo not drawn) [Example 387] gave an IC50 [1] of 0.04 to 2.7 nM and an IC50 (Human tumor cells; [2]) of 0.05 to 30 nM.
`CC(C)NC(=O)N1CCN([C@@H]2c3ccc(Cl)cc3CCc3cc(Br)cnc32)C[C@@H]1C(=O)N1CCC[C@@H](Cn2ccnc2)C1` [Example 17] was tested, and the IC50 (Human tumor cells; [2]) was 0.5 to 30 nM.
